Data as given in ChEMBL document CHEMBL4840344, “Discovery of 1,8-naphthalidine derivatives as potent anti-hepatic fibrosis agents via repressing PI3K/AKT/Smad and JAK2/STAT3 pathways” (Bioorg Med Chem, 2021).
Calls of active or inactive are those of the source. The rule behind the calls is not given here.

Assays:
[1] = Cytotoxicity against human LX2 cells assessed as cell death incubated for 24 hrs by MTT assay; format: cell-based, LX-2
COL1A1 promoter [2] = experiment: Inhibition of COL1A1 promotor activity in human LX2 cells at 50 uM incubated for 24 hrs by luciferase reporter gene assay; format: cell-based
COL1A1 promoter [3] = experiment: Inhibition of COL1A1 promotor activity in human LX2 cells at 20 uM incubated for 24 hrs by luciferase reporter gene assay; format: cell-based
[4] = Anti-fibrogenic activity in human LX2 cells assessed as inhibition of TGFbeta1-induced COL1A1 mRNA expression at 10 uM incubated for 24 hrs by RT-PCR analysis; format: functional; settings: LX-2
LX2 = experiment: Inhibition of PI3K/Akt pathway in human LX2 cells assessed as inhibition of TGF-beta1 induced AKT phosphorylation at 3 to 10 uM incubated for 24 hrs by Western blot analysis; format: cell-based; settings: dose 3-10 µM
[5] = Anti-fibrogenic activity in human LX2 cells assessed as inhibition of TGFbeta1-induced MMP2 mRNA expression at 10 uM incubated for 24 hrs by RT-PCR analysis; format: functional; settings: LX-2
LX-2 [6] = experiment: Anti-fibrogenic activity in human LX2 cells assessed as inhibition of TGFbeta1-induced COL1A1 protein level at 3 to 10 uM incubated for 24 hrs by Western blot analysis; format: functional, cell-based; settings: dose 3-10 µM
[7] = Anti-fibrogenic activity in human LX2 cells assessed as inhibition of TGFbeta1-induced MMP2 mRNA expression at 3 uM incubated for 24 hrs by RT-PCR analysis; format: functional; settings: LX-2
LX-2 [8] = experiment: Anti-fibrogenic activity in human LX2 cells assessed as inhibition of TGFbeta1-induced TGFbeta1 protein level at 3 to 10 uM incubated for 24 hrs by Western blot analysis; format: functional, cell-based; settings: dose 3-10 µM
LX-2 [9] = experiment: Anti-fibrogenic activity in human LX2 cells assessed as inhibition of TGFbeta1-induced MMP2 protein level at 3 to 10 uM incubated for 24 hrs by Western blot analysis; format: functional, cell-based; settings: dose 3-10 µM
Rattus norvegicus [10] = experiment: Anti-fibrotic activity in Sprague-Dawley rat model of BDL-induced […] fibrosis assessed as reduction in hepatic collagen accumulation in hepatic parenchyma at 200 mg/kg oral gavage for 14 days by Sirius red staining-based analysis; format: functional, organism-based; settings: time 14.0 day
LX-2 [11] = experiment: Down regulation of JAK3 expression in TGF-beta1 induced human LX2 cells at 3 to 10 uM after 24 hrs by Western blot analysis; format: functional, cell-based; settings: dose 3-10 µM
[12] = target: Mothers against decapentaplegic homolog 2/homolog 3 (Homo sapiens) (UniProt P84022+Q15796); experiment: Inhibition of TGF-beta1 induced SMAD2/3 phosphorylation in human LX2 cells at 3 to 10 uM incubated for 24 hrs by Western blot analysis; format: cell-based; settings: dose 3-10 µM
[13] = Anti-fibrogenic activity in human LX2 cells assessed as inhibition of TGFbeta1-induced CTGF mRNA expression at 3 uM incubated for 24 hrs by RT-PCR analysis; format: functional; settings: LX-2
[14] = target: Mothers against decapentaplegic homolog 3 (Homo sapiens) (UniProt P84022); experiment: Inhibition of TGF-beta1 induced SMAD3 phosphorylation in human LX2 cells by Western blot analysis; format: cell-based
LX-2 [15] = experiment: Anti-fibrogenic activity in human LX2 cells assessed as inhibition of TGFbeta1-induced CTGF protein level at 3 to 10 uM incubated for 24 hrs by Western blot analysis; format: functional, cell-based; settings: dose 3-10 µM
[16] = Anti-fibrogenic activity in human LX2 cells assessed as inhibition of TGFbeta1-induced ACTA2 mRNA expression at 3 uM incubated for 24 hrs by RT-PCR analysis; format: functional; settings: LX-2
LX-2 [17] = experiment: Down regulation of PI3K expression in TGF-beta1 induced human LX2 cells after 24 hrs by Western blot analysis; format: functional, cell-based
Rattus norvegicus [18] = experiment: Antifibrotic activity in Sprague-Dawley rat liver assessed as reduction in TGF-beta1-induced TGF-beta1 protein expression at 200 mg/kg oral gavage for 14 days by Western blot analysis; format: functional, organism-based; settings: time 14.0 day
Rattus norvegicus [19] = experiment: Antifibrotic activity in Sprague-Dawley rat liver assessed as reduction in TGF-beta1-induced alpha-SMA protein expression at 200 mg/kg oral gavage for 14 days by Western blot analysis; format: functional, organism-based; settings: time 14.0 day
[20] = Anti-fibrogenic activity in human LX2 cells assessed as inhibition of TGFbeta1-induced ACTA2 mRNA expression at 10 uM incubated for 24 hrs by RT-PCR analysis; format: functional; settings: LX-2
Rattus norvegicus [21] = experiment: Antifibrotic activity in Sprague-Dawley rat liver assessed as reduction in TGF-beta1-induced COL1A1 protein expression at 200 mg/kg oral gavage for 14 days by Western blot analysis; format: functional, organism-based; settings: time 14.0 day
[22] = Anti-fibrogenic activity in human LX2 cells assessed as inhibition of TGFbeta1-induced CTGF mRNA expression at 10 uM incubated for 24 hrs by RT-PCR analysis; format: functional; settings: LX-2
LX-2 [23] = experiment: Down regulation of STAT3 expression in TGF-beta1 induced human LX2 cells at 3 to 10 uM after 24 hrs by Western blot analysis; format: functional, cell-based; settings: dose 3-10 µM
Rattus norvegicus [24] = experiment: Anti-fibrotic activity in Sprague-Dawley rat model of BDL-induced […] fibrosis assessed as reduction in hepatic collagen accumulation in portal areas at 200 mg/kg oral gavage for 14 days by Sirius red staining-based analysis; format: functional, organism-based; settings: time 14.0 day
[25] = Anti-fibrogenic activity in human LX2 cells assessed as inhibition of TGFbeta1-induced TGFbeta1 mRNA expression at 3 uM incubated for 24 hrs by RT-PCR analysis; format: functional; settings: LX-2
Rattus norvegicus [26] = organism: Rattus norvegicus; experiment: Anti-fibrotic activity in Sprague-Dawley rat model of BDL-induced […] fibrosis assessed as reduction in hepatic injury by hematoxylin and eosin staining based microscopic analysis; format: functional, organism-based
Rattus norvegicus [27] = experiment: Antifibrotic activity in Sprague-Dawley rat liver assessed as reduction in TGF-beta1-induced MMP2 protein expression at 200 mg/kg oral gavage for 14 days by Western blot analysis; format: functional, organism-based; settings: time 14.0 day
[28] = target: Tyrosine-protein kinase JAK2 (Homo sapiens) (UniProt O60674); experiment: Inhibition of JAK2 phosphorylation in TGF-beta1 induced human LX2 cells at 3 to 10 uM incubated for 24 hrs by Western blot analysis; format: cell-based; settings: dose 3-10 µM
[29] = Anti-fibrogenic activity in human LX2 cells assessed as inhibition of TGFbeta1-induced TGFbeta1 mRNA expression at 10 uM incubated for 24 hrs by RT-PCR analysis; format: functional; settings: LX-2

Mothers against decapentaplegic homolog 3 (Homo sapiens), sequence (P84022 2-425 limits assumed): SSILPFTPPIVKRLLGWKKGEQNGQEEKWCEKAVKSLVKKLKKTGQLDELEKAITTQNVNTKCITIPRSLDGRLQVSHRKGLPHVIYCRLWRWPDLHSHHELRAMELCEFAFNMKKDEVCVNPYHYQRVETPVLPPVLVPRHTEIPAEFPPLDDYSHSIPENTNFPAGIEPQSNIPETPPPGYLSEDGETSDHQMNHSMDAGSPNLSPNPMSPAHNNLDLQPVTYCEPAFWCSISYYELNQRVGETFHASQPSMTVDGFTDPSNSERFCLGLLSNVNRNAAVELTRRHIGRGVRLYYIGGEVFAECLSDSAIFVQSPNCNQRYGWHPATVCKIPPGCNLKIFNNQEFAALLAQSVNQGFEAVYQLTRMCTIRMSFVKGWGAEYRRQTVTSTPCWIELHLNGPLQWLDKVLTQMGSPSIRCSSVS
Tyrosine-protein kinase JAK2 (Homo sapiens), sequence (O60674 whole entry): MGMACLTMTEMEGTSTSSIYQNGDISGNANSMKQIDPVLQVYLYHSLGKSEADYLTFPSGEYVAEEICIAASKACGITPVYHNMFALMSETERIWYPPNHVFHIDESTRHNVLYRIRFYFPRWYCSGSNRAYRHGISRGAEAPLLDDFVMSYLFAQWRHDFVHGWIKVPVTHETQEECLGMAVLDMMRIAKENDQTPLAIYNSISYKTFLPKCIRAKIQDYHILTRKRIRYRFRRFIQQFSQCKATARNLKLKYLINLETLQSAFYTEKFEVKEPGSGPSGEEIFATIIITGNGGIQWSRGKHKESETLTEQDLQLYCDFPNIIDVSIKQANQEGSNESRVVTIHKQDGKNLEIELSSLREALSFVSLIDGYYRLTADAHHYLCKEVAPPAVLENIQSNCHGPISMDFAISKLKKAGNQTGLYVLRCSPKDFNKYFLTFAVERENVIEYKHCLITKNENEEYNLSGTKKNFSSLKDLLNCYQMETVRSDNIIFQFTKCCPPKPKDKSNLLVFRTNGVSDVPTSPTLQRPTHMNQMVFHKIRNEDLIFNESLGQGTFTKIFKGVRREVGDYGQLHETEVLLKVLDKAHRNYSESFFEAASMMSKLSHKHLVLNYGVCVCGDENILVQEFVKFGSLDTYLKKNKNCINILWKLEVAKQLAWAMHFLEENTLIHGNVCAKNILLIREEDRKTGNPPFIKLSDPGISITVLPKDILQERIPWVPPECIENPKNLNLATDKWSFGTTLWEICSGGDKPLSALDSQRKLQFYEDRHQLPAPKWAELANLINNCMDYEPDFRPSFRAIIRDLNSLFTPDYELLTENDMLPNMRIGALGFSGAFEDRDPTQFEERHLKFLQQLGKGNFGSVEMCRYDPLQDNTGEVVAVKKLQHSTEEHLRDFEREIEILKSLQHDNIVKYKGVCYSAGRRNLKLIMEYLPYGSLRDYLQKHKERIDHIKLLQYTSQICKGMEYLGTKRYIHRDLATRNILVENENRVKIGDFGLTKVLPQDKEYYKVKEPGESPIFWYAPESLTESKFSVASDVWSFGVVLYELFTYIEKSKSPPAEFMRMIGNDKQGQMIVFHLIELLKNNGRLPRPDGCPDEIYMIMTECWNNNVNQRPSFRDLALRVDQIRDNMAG
Mothers against decapentaplegic homolog 2/homolog 3 (Homo sapiens), sequence (P84022 whole entry, looked up): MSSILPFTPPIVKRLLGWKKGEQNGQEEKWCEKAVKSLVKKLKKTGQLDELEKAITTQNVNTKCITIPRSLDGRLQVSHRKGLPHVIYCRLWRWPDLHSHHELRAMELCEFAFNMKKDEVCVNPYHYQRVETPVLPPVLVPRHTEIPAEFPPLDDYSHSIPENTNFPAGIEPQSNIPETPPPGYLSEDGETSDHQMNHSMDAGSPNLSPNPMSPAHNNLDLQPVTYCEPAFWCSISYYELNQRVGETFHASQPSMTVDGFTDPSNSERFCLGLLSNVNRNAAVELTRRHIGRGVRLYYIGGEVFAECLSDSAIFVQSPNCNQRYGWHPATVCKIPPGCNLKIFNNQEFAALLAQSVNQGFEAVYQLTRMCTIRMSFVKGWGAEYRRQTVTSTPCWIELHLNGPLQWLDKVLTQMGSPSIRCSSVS
Mothers against decapentaplegic homolog 2/homolog 3 (Homo sapiens), sequence (Q15796 whole entry, looked up): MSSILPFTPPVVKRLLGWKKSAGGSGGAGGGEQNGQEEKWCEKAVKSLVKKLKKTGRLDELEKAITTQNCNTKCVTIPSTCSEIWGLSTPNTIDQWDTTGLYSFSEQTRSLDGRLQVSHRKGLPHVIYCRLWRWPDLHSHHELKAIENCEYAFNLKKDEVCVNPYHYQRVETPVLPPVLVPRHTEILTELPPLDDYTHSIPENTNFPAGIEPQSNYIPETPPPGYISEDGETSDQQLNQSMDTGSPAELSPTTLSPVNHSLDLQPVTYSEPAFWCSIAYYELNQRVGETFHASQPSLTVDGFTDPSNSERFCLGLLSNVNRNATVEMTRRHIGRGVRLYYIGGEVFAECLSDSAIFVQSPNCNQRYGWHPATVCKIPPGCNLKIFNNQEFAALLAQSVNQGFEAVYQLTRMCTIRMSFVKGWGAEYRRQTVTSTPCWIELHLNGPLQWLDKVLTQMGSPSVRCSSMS

For CN(C)c1ccc2c(=O)c(C(=O)Nc3cc(F)cc(F)c3)cn(-c3ccc(Cl)c(OCCCCCCC[n+]4ccccc4)c3)c2n1, the CC50 at 24 h [1] was 105 µM, the inhibition (COL1A1 promoter [2]) was 77.8% and the inhibition (COL1A1 promoter [3]) was “inactive”. It also gave an inhibition at 10 µM [4] of 53.6%.

Work on CC[N+]1(CCCCCCCOc2ccc(-n3cc(C(=O)Nc4cc(F)cc(F)c4)c(=O)c4ccc(N(C)C)nc43)cc2C)CCCC1 yielded a CC50 at 24 h [1] greater than 100 µM, an inhibition (COL1A1 promoter [2]) of 82.5% and an inhibition (COL1A1 promoter [3]) of 44.6%. For the same compound, the inhibition at 10 µM [4] was 48.5%.

Cc1cc(OCCCCCCC[N+]2(C)CCCCC2)cc(-n2cc(C(=O)Nc3cc(F)cc(F)c3)c(=O)c3ccc(N(C)C)nc32)c1 gave a CC50 at 24 h [1] of 99.4 µM, an inhibition (COL1A1 promoter [2]) of 79.7% and an inhibition (COL1A1 promoter [3]) of 46.8%. It also gave an inhibition at 10 µM [4] of 23.1%.

For CC[N+]1(CCCCCCCOc2cc(-n3cc(C(=O)Nc4cc(F)cc(F)c4)c(=O)c4ccc(N(C)C)nc43)ccc2C)CCCC1, the inhibition (LX2) was “Dose-Dependent Effect”, the inhibition at 10 µM [5] was 52.4% and the inhibition (LX-2 [6]) was “Active”. The inhibition at 3 µM [7] was 36.8%, the CC50 at 24 h [1] was 95 µM and the inhibition (COL1A1 promoter [2]) was 81.3%. The inhibition (LX-2 [8]) was “Active”, the inhibition (LX-2 [9]) was “Active” and the inhibition (COL1A1 promoter [3]) was 57%. The Activity (Rattus norvegicus [10]) was “Active”, the Activity (LX-2 [11]) was “Dose-Dependent Effect” and the inhibition [12] was “Dose-Dependent Effect”. The inhibition at 3 µM [13] was 32%, the inhibition [14] was “Dose-Dependent Effect” and the inhibition (LX-2 [15]) was “Active”. For the same compound, the inhibition at 10 µM [4] was 79.7%, the inhibition at 3 µM [16] was 76.3% and the Activity (LX-2 [17]) was “Dose-Dependent Effect”. For the same compound, the Activity (Rattus norvegicus [18]) was “Active”, the Activity (Rattus norvegicus [19]) was “Active” and the inhibition at 10 µM [20] was 83.6%. The Activity (Rattus norvegicus [21]) was “Active”, the inhibition at 10 µM [22] was 67.1% and the Activity (LX-2 [23]) was “Dose-Dependent Effect”. The Activity (Rattus norvegicus [24]) was “Active”, the inhibition at 3 µM [25] was 28.9% and the Activity (Rattus norvegicus [26]) was “Active”. For the same compound, the Activity (Rattus norvegicus [27]) was “Active”, the inhibition [28] was “Active” and the inhibition at 10 µM [29] was 47%.

In the case of CC[N+]1(CCCCCCCOc2cc(C)cc(-n3cc(C(=O)Nc4cc(F)cc(F)c4)c(=O)c4ccc(N(C)C)nc43)c2)CCCCC1, the inhibition (LX2) is reported as “Dose-Dependent Effect”, the inhibition at 10 µM [5] is reported as 63.7% and the inhibition (LX-2 [6]) is reported as “Active”. It also gave an inhibition at 3 µM [7] of 40.8%, a CC50 at 24 h [1] of 97.6 µM and an inhibition (COL1A1 promoter [2]) of 86.6%. The inhibition (LX-2 [8]) was “Active”, the inhibition (LX-2 [9]) was “Active” and the inhibition (COL1A1 promoter [3]) was 67.2%. For the same compound, the Activity (LX-2 [11]) was “Dose-Dependent Effect”, the inhibition [12] was “Dose-Dependent Effect” and the inhibition at 3 µM [13] was 30.8%. For the same compound, the inhibition [14] was “Dose-Dependent Effect”, the inhibition (LX-2 [15]) was “Active” and the inhibition at 10 µM [4] was 70.8%. For the same compound, the inhibition at 3 µM [16] was 74.9%, the Activity (LX-2 [17]) was “Dose-Dependent Effect” and the inhibition at 10 µM [20] was 80.8%. The inhibition at 10 µM [22] was 68.1%, the Activity (LX-2 [23]) was “Dose-Dependent Effect” and the inhibition at 3 µM [25] was 18.9%. The inhibition [28] was “Active” and the inhibition at 10 µM [29] was 66%.

Compound CN(C)c1ccc2c(=O)c(C(=O)Nc3cc(F)cc(F)c3)cn(-c3ccc(Cl)c(OCCCCCCC[N+](C)(C)C4CCCCC4)c3)c2n1 has a CC50 at 24 h [1] greater than 100 µM, an inhibition (COL1A1 promoter [2]) of 81.4% and an inhibition (COL1A1 promoter [3]) of 37.6%. For the same compound, the inhibition at 10 µM [4] was 40.2%.

With CN(C)c1ccc2c(=O)c(C(=O)Nc3cc(F)cc(F)c3)cn(-c3ccc(OCCCCCCC[N+](C)(C)C4CCCCC4)c(Cl)c3)c2n1 the CC50 at 24 h [1] was greater than 100 µM, the inhibition (COL1A1 promoter [2]) was 86.2% and the inhibition (COL1A1 promoter [3]) was 34.8%. The inhibition at 10 µM [4] was 30.2%.

With CC[N+]1(CCCCCCCOc2ccc(-n3cc(C(=O)Nc4cc(F)cc(F)c4)c(=O)c4ccc(N(C)C)nc43)c(C)c2)CCCCC1 the CC50 at 24 h [1] was less than 20 µM, the inhibition (COL1A1 promoter [2]) was “inactive” and the inhibition (COL1A1 promoter [3]) was “inactive”.

For Cc1cc(OCCCCCCC[N+]23CCN(CC2)CC3)ccc1-n1cc(C(=O)Nc2cc(F)cc(F)c2)c(=O)c2ccc(N(C)C)nc21, the CC50 at 24 h [1] was less than 20 µM, the inhibition (COL1A1 promoter [2]) was “inactive” and the inhibition (COL1A1 promoter [3]) was “inactive”.
